Experimental data published in ChEMBL document CHEMBL1133749, “Water-soluble, core-modified porphyrins as novel, longer-wavelength-absorbing sensitizers for photodynamic therapy” (J Med Chem, 2000).

Legend:
[1] = tested on: Colon 26; test: Lethal dose required for photodynamic therapy against COLO-26 cells in culture; assay type: toxicity, cell-based
[2] = tested on: Mus musculus; test: Tested in vivo for times to mm**3 tumor volume against BALB/c mice bearing COLO-26 tumors at a dose 10 mg/Kg; assay type: functional
[3] = tested on: Mus musculus; test: Tested in vivo for times to mm**3 tumor volume against BALB/c mice bearing COLO-26 tumors at a dose 3.25 mg/Kg; assay type: functional
[4] = tested on: Murine T-cell line; test: Compound at >50 ug/mL was tested for photoactivity against murine T-cell line; No significant photoactivity; assay type: functional, cell-based; conditions: Mus musculus
[5] = tested on: Colon 26; test: Photodynamic therapy against COLO-26 cells in culture; assay type: cell-based; conditions: Mus musculus, Colon 26, light or radiation study; read-out: LD50 (the source's name)

## O=S(=O)([O-])c1ccc(-c2c3nc(c(-c4ccc(S(=O)(=O)[O-])cc4)c4ccc(s4)c(-c4ccc(S(=O)(=O)[O-])cc4)c4nc(c(-c5ccc(S(=O)(=O)[O-])cc5)c5ccc2s5)C=C4)C=C3)cc1.[Na+].[Na+].[Na+].[Na+]
[1]; Mus musculus, Colon 26, light or radiation study, read-out: LD50 (the source's name)
  CC50: < 25 mg/L
[1]; mouse
  LD90: > 50 µg/mL
[2]
  Time: 276 h
[3]
  Time: 198 h
[4]
  NS: No significant photoactivity

## O=S(=O)([O-])c1ccc(-c2c3nc(c(-c4ccc(S(=O)(=O)[O-])cc4)c4ccc([nH]4)c(-c4ccc(S(=O)(=O)[O-])cc4)c4ccc([nH]4)c(-c4ccc(S(=O)(=O)[O-])cc4)c4nc2C=C4)C=C3)cc1.[Na+].[Na+].[Na+].[Na+]
[5]
  CC50: > 100 mg/L
[4]
  NS: No significant photoactivity
